The values that follow come from article PMC5940854, “Nitrothiophene carboxamides, a novel narrow spectrum antibacterial series: Mechanism of action and Efficacy” (Scientific Reports, 2018).

Series [1] has as its system E. coli acrD knockout strain. The series can be described thus: MIC, efflux pump knockout acrD. It counts as cell-based. Particulars: Escherichia coli, read-out: MIC acrD. On the procedure: (§1) The inoculum used for all the experiments is derived from a single seed lot that is maintained as glycerol stocks at −80 °C and are sub cultured on LB plate for isolated colonies. Single colony of each strain is grown in M9 medium. All test compound stocks and dilutions are prepared in DMSO. Serial two-fold dilutions of compounds are prepared separately, with the concentrations ranging from 2 mg/mL to 0.015 mg/mL. To 150 µl (3–7 × 10^5 CFU/ml) of bacterial culture in 96 well microtitre plates, 3 μL compound from each of the dilutions is added to respective wells to obtain final concentrations ranging from 40 µg/mL to 0.3 µg/mL of the test compounds. Media control, culture control and appropriate reference drug controls are included. […] Growth is monitored by checking absorbance at 600 nm (A600). […] The samples from MIC and above concentrations are plated for MBC (Minimum Bactericidal Concentration). The samples are diluted 1:10 and plated on LB agar plates. […] The killing kinetics is determined by enumerating survivors at various time points following compound exposure. E. coli cells (~10^7 CFU/ml; A600 of 0.1) are treated with various concentrations (40 µg/mL to 0.3 µg/mL) of compounds in a 96-well microtitre plate. […] Data is expressed as the log10 CFU for each drug treatment.

In series [2] the test system is E. coli bcr knockout strain. The experiment in a line: MIC, efflux pump knockout bcr. It is filed as cell-based. Particulars: Escherichia coli, read-out: MIC bcr. On the procedure: as §1
Series [3] has as its system E. coli acrF knockout strain. The experiment in a line: MIC, efflux pump knockout acrF. Particulars: Escherichia coli, read-out: MIC acrF. It is filed as cell-based. On the procedure:
as §1

Series [4] has as its system E. coli mdtL knockout strain. The experiment in a line: MIC, efflux pump knockout mdtL. It counts as cell-based. Particulars: Escherichia coli, read-out: MIC mdtL. The protocol: as §1
Series [5] deals with E. coli emrB knockout strain. The series can be described thus: MIC, efflux pump knockout emrB. It is filed as cell-based. Particulars: Escherichia coli, read-out: MIC emrB. On the procedure: as §1
Series [6] has as its system E. coli hsrA knockout strain. The experiment in a line: MIC, efflux pump knockout hsrA. It counts as cell-based. Particulars: Escherichia coli, read-out: MIC hsrA. On the procedure:
as §1

A short description of series [7]: Intravenous pharmacokinetics. It counts as in vivo, BALB/c mice. Particulars: for AUC / AUC(0-inf) / AUC(0-t) / clearance / half-life / Vd: BALB/c, mouse, in vivo; for AUC: iv, 2 mg/kg, used for estimation of oral bioavailability; for AUC(0-inf) / AUC(0-t) / clearance / half-life / Vd / AUMC0-∞ / Clast / Kel(β) / extr AUC: mice, single IV dose 2 mg/kg; for Vd: read-out: Vss; for condition of mice post dose and throughout the study: single intravenous dose of 2 mg/kg or single oral dose of 10 mg/kg. The protocol:
The test substances were formulated in the vehicle DMSO: PEG400: Ethanol (absolute): Water at ratio of 10:40:20:30 (v/v). The required quantity of test compound was weighed, transferred into a vial and dissolved using the appropriate volumes of DMSO, PEG400, Ethanol (absolute) and sterile water in a sequential manner until a clear solution was obtained. The test substance was administered intravenously as a bolus via the tail vein at a dose volume of 5 ml/kg.
(§2) At 5 min, 15 min, 30 min, 1 h, 2 h, 4 h, 8 h, and 24 h time points, and prior to sampling, mice were anaesthetized with isoflurane. From each mouse, two blood samples were drawn; the 1st was non-terminal (0.1 ml) and the 2nd terminal, by retro-orbital plexus puncture using heparanised capillary tubes. Blood was collected in 2 ml Eppendorf tubes containing 0.01 ml of 10% K2EDTA as anticoagulant, mixed gently and placed in ice before centrifugation. Blood was centrifuged at 10,000 rpm for 5 min, and plasma was harvested and stored at −80 °C until bioanalysis.
(§3) Ultrafast liquid chromatography mass spectrometric method was used for the estimation of test compounds in pre-clinical study samples. The analysis was performed using an API 4000 LC-MS/MS system. The interface used with the API 4000 LC-MS/MS was a Turbo Ion spray. The positive ions were measured in MRM mode. The analyte was extracted using a solid-phase extraction procedure. The data was acquired by and integrated using the Applied Biosystems “Analyst” version 1.5.2 software. Linear regression, with 1/x^2 weighting was used for calibration.
(§4) Non-compartmental (NCA) PK analysis was performed using MS Excel. The linear trapezoidal rule was used to estimate the AUC. The NCA analysis was performed using the following equations (3) on mean concentration time data: AUC=Σ[(Ci1+Ci2)/2]∗[ti2−ti1] AUMC=Σ[((Ci1∗ti1)+(Ci2∗ti2))/2)∗(ti2−ti1)] AUCt−∞=Clast/Kel AUC0−∞=AUC0−t+AUCt−∞ AUCextrapolated(%)=[AUCt−∞/AUC0−∞]∗100 where, Ci1 and Ci2 are the concentrations at times ti1 and ti2, respectively. Kel=ln(Cx/Cy)/(ty−tx) where, Kel is the first order elimination rate constant, ln is the natural logarithm, Cx and Cy are the first and last concentrations, respectively on the linear portion of the terminal phase of the concentration-time profile, and ty and tx are the corresponding time points. T1/2=0.693/Kel Cl=Doseiv/AUC0−∞ Vss=(AUMC0−∞/AUC0−∞)∗(Doseiv/AUC0−∞) Cmax and tmax were visually estimated from the mean oral conc-time profile F(%)=(AUCpo/AUCiv)∗(Doseiv/Dosepo)∗100

In series [8] the test system is Salmonella typhimurium clinical strain. The experiment in a line: MIC, Salmonella typhimurium. It is filed as cell-based. The protocol:
as §1

Series [9] relates to Shigella flexneri clinical strain. The experiment in a line: MIC, Shigella flexneri. It is filed as cell-based. On the procedure: as §1
A further series can be described thus: Oral pharmacokinetics. It is filed as in vivo, BALB/c mice. Set-up: Ke: unit not given here. Particulars: for AUC / AUC(0-inf) / AUC(0-t) / Cmax / Tmax / half-life / bioavailability: BALB/c, mouse, plasma; for AUC: po; for AUC(0-inf) / AUC(0-t) / Cmax / Tmax / half-life / Ke / ext AUC: mice. On the procedure: The test substances were formulated in 10% DMSO in 0.25% carboxy methyl cellulose. […] Then 3.6 ml of 0.25% of CMC was added in aliquots to the DMSO solution, with constant grinding using a pestle until a uniform suspension was obtained. […]
as §2, §3, §4

The next series concerns E. coli ∆acrB JW0451-2. The experiment in a line: Neutropenic thigh infection, E. coli ∆acrB. It is filed as in vivo, BALB/c mice.
The test system of the next series is E. coli BW25113. The experiment in a line: Neutropenic thigh infection, E. coli BW25113. It counts as in vivo, BALB/c mice.

In brackets after ≈: the same amount, converted by molar mass.

Turning to `Cc1sc(NC(=O)c2ccc([N+](=O)[O-])s2)nc1-c1ccccc1` [compound 7, N-(5-Methyl-4-phenylthiazol-2-yl)-5-nitrothiophene-2-carboxamide], the MIC in series [1], in [2], in [3], in series [4], in series [5] and in series [6] was greater than 40 µg/mL throughout.
Consider `O=C(Nc1nc(-c2ccc(F)cc2F)cs1)c1ccc([N+](=O)[O-])s1` [compound 12, N-(4-(2,4-difluorophenyl)thiazol-2-yl)-5-nitrothiophene-2-carboxamide], for which, in series [7], the AUC – broadly, concentration integrated over time – was 570 ng·h/mL; the AUC(0-inf) (as a rule, the area under the concentration-time curve extrapolated to infinity) came out at 570 ng·h/mL; the AUC(0-t) (usually exposure summed from dosing to a finite time, without extrapolation to infinity) is 570 ng·h/mL; the clearance (in general, the rate of elimination divided by the concentration) is 58.7 mL/min/kg. Besides, in [7], the half-life (usually how long it takes for the measured level to halve) was 36 min, the Vd is 1.64 L/kg, the “AUMC0-∞” value was 0.26 and the Clast is 3 ng/mL. Further, in series [7], the “Kel(β)” value was 1.18 ^-h; the “extr AUC” value was 0.4%; the “condition of mice post dose and throughout the study” value was “visibly normal”. This compound also registered an MIC Salmonella typhimurium in [8] of 2.5 µg/mL (≈ 6.81 µM). Besides, the MIC Shigella flexneri in [9] worked out at 10 µg/mL (≈ 27.2 µM). The compound further had an AUC in the series “Oral pharmacokinetics” (10 mg/kg) of 760 ng·h/mL. Further, in “Oral pharmacokinetics” (single oral dose 10 mg/kg), the AUC(0-inf) amounted to 760 ng·h/mL; the AUC(0-t) stood at 750 ng·h/mL; the peak concentration (Cmax) (usually the highest concentration seen after dosing) stood at 650 ng/mL; the Tmax (in general, the time at which the peak concentration occurs) was found to be 15 min. In addition, in the series “Oral pharmacokinetics” (single oral dose 10 mg/kg), the half-life is 61.8 min, the Ke is 0.67 and the “ext AUC” value is listed as 0.5%. Besides, the bioavailability (commonly dose-corrected exposure relative to a reference, in per cent) in the series “Oral pharmacokinetics” (oral 10 mg/kg vs IV 2 mg/kg) was determined as 26.7%.
Take `O=C(Nc1nc(-c2ccc(F)cc2)cs1)c1ccc([N+](=O)[O-])s1` [compound 15, N-(4-(4-Fluorophenyl)thiazol-2-yl)-5-nitrothiophene-2-carboxamide]: in [7], the AUC was 910 ng·h/mL, the area under the curve AUC(0-inf) was 911 ng·h/mL, the AUC(0-t) is 900 ng·h/mL and the clearance is 36.7 mL/min/kg. Besides, in series [7], the half-life is 30 min, the Vd stood at 0.4 L/kg, the “AUMC0-∞” value was found to be 0.17 and the Clast amounted to 12 ng/mL. In series [7], the “Kel(β)” value was 1.51 ^-h; the “extr AUC” value turned out to be 0.9%; the “condition of mice post dose and throughout the study” value is recorded as “visibly normal”. The compound further returned an AUC in the series “Oral pharmacokinetics” (10 mg/kg) of 750 ng·h/mL. Also, the AUC in the series “Oral pharmacokinetics” (100 mg/kg) worked out at 10300 ng·h/mL. For the same compound, in “Oral pharmacokinetics” (single oral dose 10 mg/kg), the AUC(0-inf) worked out at 760 ng·h/mL, the AUC(0-t) was found to be 750 ng·h/mL, the Cmax came to 1200 ng/mL and the Tmax is 15 min. Moreover, in the series “Oral pharmacokinetics” (single oral dose 10 mg/kg), the half-life is 289 min, the Ke amounted to 0.14 and the “ext AUC” value turned out to be 1.5%. Besides, in “Oral pharmacokinetics” (single oral dose 100 mg/kg), the exposure AUC(0-t) came out at 10300 ng·h/mL, the Cmax came out at 3800 ng/mL and the time of peak concentration (Tmax) was 15 min. Also, in the series “Oral pharmacokinetics” (oral 10 mg/kg vs IV 2 mg/kg), the bioavailability is 16.5%. Moreover, the bioavailability in “Oral pharmacokinetics” (oral 100 mg/kg vs IV 2 mg/kg) was determined as 22.6%. In addition, the “efficacy in thigh infection model (in words)” value in the series with E. coli ∆acrB JW0451-2 (E. coli ∆acrB JW0451-2) is “significantly bactericidal”. Further, the “Log10CFU Mean Diff. vs. Untreated Controls” value in the series with E. coli ∆acrB JW0451-2 (Study TI-2014-007, ∆acrB JW0451-2, 10mg/kg per oral) is reported as 0.2933 Log10CFU. Also, in the series on E. coli ∆acrB JW0451-2 (Study TI-2014-007, ∆acrB JW0451-2, 30mg/kg per oral), the “Log10CFU Mean Diff. vs. Untreated Controls” value stood at 1.943 Log10CFU. In addition, the “Log10CFU Mean Diff. vs. Untreated Controls” value in the series on E. coli ∆acrB JW0451-2 (Study TI-2014-007, ∆acrB JW0451-2, 100mg/kg per oral, 6 hours post treatment) is 2.436 Log10CFU. For the same compound, the “Log10CFU Mean Diff. vs. Untreated Controls” value in the series with E. coli ∆acrB JW0451-2 (Study TI-2014-008, ∆acrB JW0451-2, 30mg/kg per oral) stood at 1.497 Log10CFU. The “Log10CFU Mean Diff. vs. Untreated Controls” value in the series on E. coli ∆acrB JW0451-2 (Study TI-2014-008, ∆acrB JW0451-2, 100mg/kg per oral) was found to be 2.253 Log10CFU. Further, the “Log10CFU Mean Diff. vs. Untreated Controls” value in the series with E. coli BW25113 (Study TI-2014-008, BW25113, 30mg/kg per oral) is 0.9167 Log10CFU. In addition, the “Log10CFU Mean Diff. vs. Untreated Controls” value in the series with E. coli BW25113 (Study TI-2014-008, BW25113, 100mg/kg per oral) turned out to be 1.643 Log10CFU. For the same compound, the “efficacy in thigh infection model (in words)” value in the series on E. coli BW25113 (WT E. coli BW25113) is listed as “significantly bactericidal”.
In series [8], `COc1cc(-c2csc(NC(=O)c3ccc([N+](=O)[O-])s3)n2)ccc1Cl` [compound 20, N-(4-(4-chloro-3-methoxyphenyl)thiazol-2-yl)-5-nitrothiophene-2-carboxamide] registered an MIC Salmonella typhimurium of 10 µg/mL (≈ 25.3 µM).
